Data as given in patent publication US20230346820A1, “METHODS AND COMPOSITIONS FOR THE TREATMENT OF SARS-COV-2” (priority 2020, published 2023).
Counter-ions that a name gives are not always drawn. Like-named read-outs stand apart in the source and are kept apart here.

Assays:
[1] = in vitro; settings: human
[2] = test system: SARS-CoV-2
[3] = in vitro; settings: human; remark: listed apart in the source
Procedure: To assess cell viability, 2 μL of 50% Cell-Titer Glo (Promega No G7573) diluted in water was added to the cells and luminescence measured on an EnVision Plate Reader (Perkin Elmer).
Data analysis. […] Primary in vitro screen and the host cell cytotoxicity counter screen data were uploaded to Genedata Screener, Version 16.0.3-Standard. […] For the uninfected host cell cytotoxicity counter screens, 40 μM puromycin (Sigma) was used as the positive (inhibitory) control in HeLa-ACE2, HepG2 and HEK293T cells, and 30 μM puromycin (Sigma) was used as the positive (inhibitory) control for Calu-3 cells. For dose response experiments compounds were tested in technical triplicates on different assay plates and dose curves were fitted with the four parameter Hill Equation. Technical replicate data were analyzed using median condensing. Geometric means and geometric standard deviations are reported for compound activities (EC50s and CC50s) obtained in multiple independent biological experiments. […] Geometric means were calculated by computing the logarithm (base 10) of all values, calculating the mean of these logarithms, and taking the antilog of that mean. Geometric standard deviations were computed by taking the standard deviation of the log-transformed individual values and taking the antilog of that standard deviation. The geometric standard deviation is a unitless ratio and reported as ×÷ instead of +/−.

[4] = test system: SARS-CoV-2; settings: for HeLa-ACE2 SI CC50/CoV-2 EC50: Table 4
[5] = test system: SARS-CoV-2; assay: microbe, parasite or virus in culture; settings: Severe acute respiratory syndrome coronavirus 2, Calu-3, 48 h, read-out: Calu-3 CoV-2 EC50 [μM]
[6] = test system: SARS-CoV-2; assay: microbe, parasite or virus in culture; settings: Severe acute respiratory syndrome coronavirus 2, HeLa-ACE2, 24 h, read-out: CoV-2 EC50 [μM] (Geomeans, n ≥ 2)
[7] = test system: HeLa-ACE2 cells; assay: cells; assay type: cell-based, human; settings: Homo sapiens, HeLa-ACE2, read-out: HeLa-ACE-2 EC50 [μM] (Geomeans, n ≥ 2)
[8] = HeLa-ACE2 Uninfected Tox CC50 [μM], Table 4, aggregated data, Geomean, n = 3
[9] = CC50 [μM] (Geomeans, n ≥ 2 except where indicated: *n = 1)

| Compound | CC50 [1, 8] [µM] | Calu3 SI CC50/CoV-2 EC50 ([2]; Table 4) | CC50 [3] [µM] | EC50 [5] [µM] | EC50 [6] [µM] | CC50 [1, 9] [µM] | HeLa-ACE2 CC50/CoV-2 EC50 [4] | EC50 [7] [µM] | other results |
| --- | --- | --- | --- | --- | --- | --- | --- | --- | --- |
| C=Cc1cc(C(=O)Nc2ccc(C(=N)N)cc2)c(-c2ccc(C(=O)NCC3CC3)nc2C(=O)O)cc1OC [Avoralstat] | > 39.8 | >77 | > 29.9 |  |  |  |  |  | activity in Calu-3 infection assay [2]: active |
| COC(=O)[C@]12CCC(C)(C)C[C@H]1[C@H]1C(=O)C=C3[C@@]4(C)C=C(C#N)C(=O)C(C)(C)[C@@H]4CC[C@@]3(C)[C@]1(C)CC2 [Bardoxolone Methyl] | 3.1 | 38.47 | 3.06 |  |  |  |  |  | HeLa-ACE2 SI CC50/CoV-2 EC50 [4]: 5.73 |
| O=c1[nH]ccc2cc(OC3CCNCC3)ccc12 [SAR-407899] | > 38.7 | >7.77 | > 29.9 | > 3.85 |  |  |  |  | HeLa-ACE2 SI CC50/CoV-2 EC50 [4]: 4.03 |
| CC/C(=C(/c1ccc(/C=C/C(=O)O)cc1)c1ccc2[nH]ncc2c1)c1ccc(F)cc1Cl [ARN-810] | 11 | 21.60 | 23.8 | 1.1 |  |  |  |  |  |
| CCc1ccc(C2=CC(C)(C)Sc3ccc(C#Cc4ccc(C(=O)O)cc4)cc32)cc1 [AGN-194310] |  |  | > 29.9 | 0.597 |  |  |  |  | CC50 ([1]; HeLa-ACE2 Uninfected Tox CC50 [μM]): > 39.8 µM; Calu3 SI CC50/CoV-2 EC50 [2]: >50 |
| CC(C)(C)c1ccc(CSc2cnn(C(C)(C)C)c(=O)c2Cl)cc1 [PYRIDABEN] | > 39.8 | 43.89 | 8.99 | 0.205 |  |  |  |  |  |
| CC(=N)N1CCC(Oc2ccc(N(Cc3ccc4ccc(C(=N)N)cc4c3)S(=O)(=O)CC(=O)O)cc2)CC1 [YM 60828] | > 39.8 | >9 | > 29.9 | 3.38 |  |  |  |  |  |
| O[C@@H]1CO[C@H]2[C@@H]1OC[C@H]2Oc1nc2nc(-c3ccc(-c4ccccc4)cc3)c(Cl)cc2[nH]1 [MK-8722] | 37.4 | >10 | > 29.9 | 2.73 |  |  |  |  |  |
| COc1cc2c(Nc3ccc(Cl)c(Cl)c3F)ncnc2cc1OC[C@@H]1C[C@@H]2CN(C)C[C@@H]2C1 [tesevatinib] |  |  |  |  | 2.44 | > 20.6 | >8.46 | > 8.16 |  |
| O=C(c1ccc(OCCN2CCCCC2)cc1)c1c(-c2ccc(O)cc2)sc2cc(O)ccc12 [raloxifene hydrochloride] |  |  |  |  | 4.48 | > 13.3 | >2.97 | > 8.71 |  |
| CC(=O)O[C@H]1C[C@H](O[C@H]2[C@@H](O)C[C@H](O[C@H]3[C@@H](O)C[C@H](O[C@H]4CC[C@@]5(C)[C@H](CC[C@@H]6[C@@H]5C[C@@H](O)[C@]5(C)[C@@H](C7=CC(=O)OC7)CC[C@]65O)C4)O[C@@H]3C)O[C@@H]2C)O[C@H](C)[C@H]1O[C@@H]1O[C@H](CO)[C@@H](O)[C@H](O)[C@H]1O [LANATOSIDE] | 1.35 | 31.97 | 6.21 | 0.194 |  |  |  |  | HeLa-ACE2 SI CC50/CoV-2 EC50 [4]: 6.56 |
| COC(=O)C1=C(C)NC(C)=C(C(=O)OCCCCNC[C@@H](O)COc2ccccc2)C1c1cccc([N+](=O)[O-])c1 (stereo partly shown) [YM 430] |  |  |  |  | 2.88 | > 20.2 | 7.01 | > 7.8 |  |
| COCc1c(C(C)C)nc(C(C)C)c(/C=C/[C@@H](O)C[C@@H](O)CC(=O)O)c1-c1ccc(F)cc1 [cerivastatin (sodium salt)] | 0.308 | >85 | > 29.9 | 0.348 |  |  |  |  |  |
| CNCc1ccc(OC)c([C@]2(N3CCC[C@H]3c3ncco3)C(=O)N(S(=O)(=O)c3ccc(OC)cc3)c3ccc(Cl)cc32)c1 [RFM-011-200-5] |  |  |  |  | 1.93 | > 8.46 | >4.37 | 4.24 |  |
| O=c1nc(NO)ccn1[C@@H]1O[C@H](CO)[C@@H](O)[C@H]1O [N-hydroxycytidine] |  |  |  |  |  | > 37.5 | >18.13 | > 9.6 | activity in Calu-3 infection assay [2]: potent and selective; activity in HeLa-ACE2 infection assay [4]: potent and selective |
| Cc1cn2nc(-c3cc(=O)n4cc(N5CCNC6(CC6)C5)ccc4n3)cc(C)c2n1 [Risdiplam] |  |  |  |  | > 7.05 | > 17.8 | 2.53 | > 7.05 |  |
| CC[C@@H](C(=O)O)[C@@H]1O[C@@H]([C@@H](C)[C@H](O)[C@H](C)C(=O)[C@H](CC)[C@H]2O[C@]3(C=C[C@@H](O)[C@]4(CC[C@@](C)([C@H]5CC[C@](O)(CC)[C@H](C)O5)O4)O3)[C@H](C)C[C@@H]2C)[C@@H](C)C[C@@H]1C [Narasin] |  |  |  |  | 1.5 | 3.47 | 2.31 | 5.99 |  |
| CN1CCN(CCCN2c3ccccc3Sc3ccc(S(=O)(=O)N(C)C)cc32)CC1 [Thioproperazine] |  |  |  |  | 3.03 | 22.1 | 7.29 | > 9.59 |  |
| CC[C@@H]1/C=C/C=C/C[C@H](C)[C@@H](O)[C@](C)(O)C(=O)[C@H](C)[C@@H](O)[C@H](C)C(=O)[C@H](C)[C@@H](O)[C@H](C)/C=C/C(=O)O[C@H]2[C@@H](C)[C@@H](CC1)O[C@]1(O[C@H](C[C@H](C)O)[C@H](C)CC1=O)[C@@H]2C [Oligomycin B] |  | 4539.49 |  | 0.005 |  |  |  |  | CC50 at 48 h [3]: 24.5 µM |
| c1cn2cc(-c3ccc4c(c3)nc3n4CCN4CCCCC4C3)ccc2n1 (stereo not shown) [Integrity ID 725781] |  |  |  |  | > 9.04 | > 39.8 | 4.41 | > 9.59 |  |
| C=C(C)[C@@H]1CC[C@]2(C(=O)OCC(N)(CO)CO)CC[C@]3(C)[C@H](CC[C@@H]4[C@@]5(C)CC[C@H](OC(C)=O)C(C)(C)[C@@H]5CC[C@]43C)[C@@H]12 [NVX-207] |  |  |  |  | 1.87 | 8.19 | 4.37 | 5.88 |  |
| O=c1c2ccccc2[se]n1-c1ccccc1 [Ebselen] |  |  |  |  | > 8.5 | > 26.6 | 3.13 | 6.02 |  |
| CN(C)CCC1CCc2cc(OCc3ccc(-c4ccccc4)cc3)ccc2C1 (stereo not shown) [TAK-070] |  |  |  |  | 1.41 | 10.1 | 7.19 | > 5.5 |  |
| Oc1ccc(CCN2CCC(Nc3nc4ccccc4n3Cc3ccc(F)cc3)CC2)cc1 [DESMETHYLASTEMIZOLE] |  |  |  |  | 2.38 | 16.2 | 6.81 | > 9.59 |  |
| N=C(N)Nc1ccc(C(=O)Oc2ccc(S(N)(=O)=O)cc2)cc1 [Ono-3307] | > 39.8 | >16 | > 29.9 | 1.6 |  |  |  |  |  |
| CC(=O)N1C[C@H](O)C[C@H]1C(=O)N[C@@H](CCCNC(=N)N)C(=O)c1nc2ccccc2s1 [RWJ-56423] | > 39.8 | >24 | > 29.9 | 1.23 |  |  |  |  |  |
| OCCN1CCN(CC/C=C2\c3ccccc3Sc3ccc(Cl)cc32)CC1 [ZUCLPEN THIXL] |  |  |  |  | 2.08 | > 16.8 | >8.08 | > 9.59 |  |
| NC(N)=Nc1ncc(Cl)c2ccc(-c3cccc(C(=O)O)c3)cc12 [UK-356202] | > 39.8 | >15 | > 29.9 | 1.92 |  |  |  |  |  |
| COCC12CN(S(=O)(=O)c3ccc4cc(Cl)ccc4c3)CC(=O)N1CC1(CCN(c3ccncc3)CC1)O2 (stereo not shown) [M-55532] |  |  |  |  | 2.77 | 18.9 | 6.81 | > 6.45 |  |
